How the values were obtained:
[1] = molecular target: T1, Serine/threonine-protein kinase TNNI3K (Homo sapiens) (UniProt Q59H18); assay: Selectivity interaction (KinomeScan (DiscoverX)) EUB0000666a TNNI3K; settings: at 10 µM
T1 sequence (whole entry): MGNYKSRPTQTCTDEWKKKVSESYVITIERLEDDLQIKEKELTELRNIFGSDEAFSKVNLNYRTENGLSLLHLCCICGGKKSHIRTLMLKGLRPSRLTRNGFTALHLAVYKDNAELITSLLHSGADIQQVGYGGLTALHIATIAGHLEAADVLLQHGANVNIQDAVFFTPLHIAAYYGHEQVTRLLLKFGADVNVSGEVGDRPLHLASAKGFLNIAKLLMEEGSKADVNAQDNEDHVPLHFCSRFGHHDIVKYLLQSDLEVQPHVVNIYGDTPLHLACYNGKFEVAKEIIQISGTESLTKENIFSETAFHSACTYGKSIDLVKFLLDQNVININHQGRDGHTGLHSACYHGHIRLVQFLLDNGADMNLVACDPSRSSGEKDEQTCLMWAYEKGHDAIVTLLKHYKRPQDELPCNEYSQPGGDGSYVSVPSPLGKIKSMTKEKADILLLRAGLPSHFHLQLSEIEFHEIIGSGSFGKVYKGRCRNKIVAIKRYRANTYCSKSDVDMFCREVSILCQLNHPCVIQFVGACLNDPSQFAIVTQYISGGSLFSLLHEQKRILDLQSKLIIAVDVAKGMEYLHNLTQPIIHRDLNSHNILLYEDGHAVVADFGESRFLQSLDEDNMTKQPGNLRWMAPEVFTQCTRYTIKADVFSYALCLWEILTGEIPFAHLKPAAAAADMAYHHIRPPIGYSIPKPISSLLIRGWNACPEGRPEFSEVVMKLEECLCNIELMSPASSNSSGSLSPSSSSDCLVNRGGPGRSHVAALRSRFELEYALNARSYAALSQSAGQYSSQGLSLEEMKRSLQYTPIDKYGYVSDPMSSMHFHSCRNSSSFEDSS

[2] = molecular target: T2, Serine/threonine-protein kinase Nek2 (Homo sapiens) (UniProt P51955); assay: Selectivity interaction (KinomeScan (DiscoverX)) EUB0000666a NEK2; settings: at 10 µM
T2 sequence (whole entry): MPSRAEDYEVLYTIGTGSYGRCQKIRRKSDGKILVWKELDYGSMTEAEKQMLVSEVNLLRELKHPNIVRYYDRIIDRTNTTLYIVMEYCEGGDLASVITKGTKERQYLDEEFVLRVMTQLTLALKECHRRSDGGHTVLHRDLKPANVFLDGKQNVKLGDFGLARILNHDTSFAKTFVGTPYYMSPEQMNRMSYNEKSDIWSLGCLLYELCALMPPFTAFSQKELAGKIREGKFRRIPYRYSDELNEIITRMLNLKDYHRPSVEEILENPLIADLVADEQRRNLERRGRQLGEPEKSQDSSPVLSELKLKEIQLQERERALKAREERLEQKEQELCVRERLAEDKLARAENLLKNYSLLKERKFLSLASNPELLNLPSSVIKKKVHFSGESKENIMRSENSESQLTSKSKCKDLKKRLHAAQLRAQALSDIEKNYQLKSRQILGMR

[3] = molecular target: Insulin-like growth factor 1 receptor (Homo sapiens, UniProt P08069); assay: Selectivity interaction (KinomeScan (DiscoverX)) EUB0000595a IGF1R; settings: at 10 µM
Insulin-like growth factor 1 receptor, sequence (P08069 31-736 limits assumed): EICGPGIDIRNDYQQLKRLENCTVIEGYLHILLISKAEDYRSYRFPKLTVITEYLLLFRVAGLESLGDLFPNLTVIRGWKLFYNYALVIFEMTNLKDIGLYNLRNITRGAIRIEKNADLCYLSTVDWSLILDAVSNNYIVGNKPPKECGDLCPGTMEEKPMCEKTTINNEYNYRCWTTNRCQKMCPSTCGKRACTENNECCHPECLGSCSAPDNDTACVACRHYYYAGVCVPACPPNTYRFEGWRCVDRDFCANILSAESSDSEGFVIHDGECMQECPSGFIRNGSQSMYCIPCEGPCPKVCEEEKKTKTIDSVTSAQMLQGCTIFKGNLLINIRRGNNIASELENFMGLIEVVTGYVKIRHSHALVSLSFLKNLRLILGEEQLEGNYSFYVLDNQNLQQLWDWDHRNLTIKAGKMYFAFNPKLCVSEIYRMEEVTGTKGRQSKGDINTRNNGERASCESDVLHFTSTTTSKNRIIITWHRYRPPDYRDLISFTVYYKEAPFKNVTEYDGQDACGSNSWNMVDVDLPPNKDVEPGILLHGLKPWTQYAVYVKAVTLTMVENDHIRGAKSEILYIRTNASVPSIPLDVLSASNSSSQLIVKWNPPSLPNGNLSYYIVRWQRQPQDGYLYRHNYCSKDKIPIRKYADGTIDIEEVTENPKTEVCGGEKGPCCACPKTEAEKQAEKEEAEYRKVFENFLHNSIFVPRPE
Insulin-like growth factor 1 receptor, sequence (P08069 741-1367 limits assumed): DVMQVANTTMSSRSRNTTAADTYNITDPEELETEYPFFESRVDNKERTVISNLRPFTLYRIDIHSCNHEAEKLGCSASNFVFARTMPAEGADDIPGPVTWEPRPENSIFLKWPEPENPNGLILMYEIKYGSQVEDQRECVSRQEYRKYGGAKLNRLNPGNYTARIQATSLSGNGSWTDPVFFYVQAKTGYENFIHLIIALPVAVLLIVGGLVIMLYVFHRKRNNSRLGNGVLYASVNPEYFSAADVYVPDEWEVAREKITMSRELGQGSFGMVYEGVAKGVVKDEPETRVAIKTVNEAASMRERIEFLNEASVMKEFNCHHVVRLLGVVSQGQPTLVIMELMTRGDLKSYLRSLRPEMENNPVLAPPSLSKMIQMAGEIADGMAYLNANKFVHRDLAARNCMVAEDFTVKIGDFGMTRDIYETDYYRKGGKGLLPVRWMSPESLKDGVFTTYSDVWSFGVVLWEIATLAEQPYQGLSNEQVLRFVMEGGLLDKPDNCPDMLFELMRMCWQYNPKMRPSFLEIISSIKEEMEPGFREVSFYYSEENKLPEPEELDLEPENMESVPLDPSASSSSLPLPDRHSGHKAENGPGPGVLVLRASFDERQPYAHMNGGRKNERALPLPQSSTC

[4] = molecular target: Mitogen-activated protein kinase kinase kinase 10 (Homo sapiens) (UniProt Q02779); assay: Selectivity interaction (KinomeScan (DiscoverX)) EUB0000092b MAP3K10; settings: at 10 µM
Mitogen-activated protein kinase kinase kinase 10 (Homo sapiens), sequence (Q02779 whole entry, looked up): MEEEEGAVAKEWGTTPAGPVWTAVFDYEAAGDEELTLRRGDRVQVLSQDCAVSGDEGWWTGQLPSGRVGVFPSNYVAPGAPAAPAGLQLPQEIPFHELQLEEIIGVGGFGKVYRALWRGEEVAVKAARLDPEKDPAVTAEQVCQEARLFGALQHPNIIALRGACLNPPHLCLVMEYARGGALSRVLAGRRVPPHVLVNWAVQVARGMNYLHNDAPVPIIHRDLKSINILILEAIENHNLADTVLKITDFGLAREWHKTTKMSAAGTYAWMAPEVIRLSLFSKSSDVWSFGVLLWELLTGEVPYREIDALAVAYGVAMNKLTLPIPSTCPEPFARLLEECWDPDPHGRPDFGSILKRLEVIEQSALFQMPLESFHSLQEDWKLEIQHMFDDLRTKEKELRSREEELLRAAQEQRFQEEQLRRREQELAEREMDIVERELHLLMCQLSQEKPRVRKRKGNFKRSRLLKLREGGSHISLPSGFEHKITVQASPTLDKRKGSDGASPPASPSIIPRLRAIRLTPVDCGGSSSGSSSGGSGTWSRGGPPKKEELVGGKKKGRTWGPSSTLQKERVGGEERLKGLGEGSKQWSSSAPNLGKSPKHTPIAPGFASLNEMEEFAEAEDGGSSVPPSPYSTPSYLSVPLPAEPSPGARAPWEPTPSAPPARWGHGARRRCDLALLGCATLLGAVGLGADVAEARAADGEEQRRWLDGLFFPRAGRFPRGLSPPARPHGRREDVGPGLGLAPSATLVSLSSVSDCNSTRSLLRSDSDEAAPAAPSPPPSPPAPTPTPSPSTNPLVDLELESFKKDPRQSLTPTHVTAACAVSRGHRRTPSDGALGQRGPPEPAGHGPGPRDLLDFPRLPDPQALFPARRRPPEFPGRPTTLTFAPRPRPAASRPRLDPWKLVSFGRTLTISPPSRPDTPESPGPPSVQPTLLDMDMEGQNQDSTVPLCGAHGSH

[5] = molecular target: T3, Serine/threonine-protein kinase TAO3 (Homo sapiens) (UniProt Q9H2K8); assay: Selectivity interaction (KinomeScan (DiscoverX)) EUB0001619a TAOK3; settings: at 1 µM
T3 sequence (whole entry): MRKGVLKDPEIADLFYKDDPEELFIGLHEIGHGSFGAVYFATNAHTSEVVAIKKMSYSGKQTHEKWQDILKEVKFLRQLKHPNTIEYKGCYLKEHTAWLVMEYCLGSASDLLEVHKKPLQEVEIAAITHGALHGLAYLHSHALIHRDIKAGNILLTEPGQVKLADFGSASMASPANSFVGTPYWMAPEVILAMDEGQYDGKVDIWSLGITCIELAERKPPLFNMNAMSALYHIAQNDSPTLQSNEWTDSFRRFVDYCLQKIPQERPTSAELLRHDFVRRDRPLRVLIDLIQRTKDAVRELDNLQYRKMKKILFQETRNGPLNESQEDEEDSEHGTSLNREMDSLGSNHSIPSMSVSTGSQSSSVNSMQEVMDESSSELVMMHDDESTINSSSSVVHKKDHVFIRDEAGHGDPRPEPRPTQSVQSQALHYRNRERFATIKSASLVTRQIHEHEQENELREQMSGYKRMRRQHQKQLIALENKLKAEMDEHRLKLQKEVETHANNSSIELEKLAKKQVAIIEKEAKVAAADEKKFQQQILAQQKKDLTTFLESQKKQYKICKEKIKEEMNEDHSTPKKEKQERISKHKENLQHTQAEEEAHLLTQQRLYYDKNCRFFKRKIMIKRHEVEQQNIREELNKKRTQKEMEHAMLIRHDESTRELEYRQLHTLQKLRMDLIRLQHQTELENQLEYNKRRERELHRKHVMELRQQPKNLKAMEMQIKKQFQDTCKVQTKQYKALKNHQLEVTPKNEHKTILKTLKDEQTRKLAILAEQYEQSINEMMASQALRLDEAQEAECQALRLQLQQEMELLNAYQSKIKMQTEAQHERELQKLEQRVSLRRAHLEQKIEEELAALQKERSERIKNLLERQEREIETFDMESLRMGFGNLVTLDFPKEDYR

[6] = molecular target: SRSF protein kinase 2 (Homo sapiens) (UniProt P78362); assay: Selectivity interaction (Upstate Kinase Profiler service (Millipore)) EUB0000056c SRPK2; settings: at 1 µM
SRSF protein kinase 2 (Homo sapiens), sequence (P78362 whole entry, looked up): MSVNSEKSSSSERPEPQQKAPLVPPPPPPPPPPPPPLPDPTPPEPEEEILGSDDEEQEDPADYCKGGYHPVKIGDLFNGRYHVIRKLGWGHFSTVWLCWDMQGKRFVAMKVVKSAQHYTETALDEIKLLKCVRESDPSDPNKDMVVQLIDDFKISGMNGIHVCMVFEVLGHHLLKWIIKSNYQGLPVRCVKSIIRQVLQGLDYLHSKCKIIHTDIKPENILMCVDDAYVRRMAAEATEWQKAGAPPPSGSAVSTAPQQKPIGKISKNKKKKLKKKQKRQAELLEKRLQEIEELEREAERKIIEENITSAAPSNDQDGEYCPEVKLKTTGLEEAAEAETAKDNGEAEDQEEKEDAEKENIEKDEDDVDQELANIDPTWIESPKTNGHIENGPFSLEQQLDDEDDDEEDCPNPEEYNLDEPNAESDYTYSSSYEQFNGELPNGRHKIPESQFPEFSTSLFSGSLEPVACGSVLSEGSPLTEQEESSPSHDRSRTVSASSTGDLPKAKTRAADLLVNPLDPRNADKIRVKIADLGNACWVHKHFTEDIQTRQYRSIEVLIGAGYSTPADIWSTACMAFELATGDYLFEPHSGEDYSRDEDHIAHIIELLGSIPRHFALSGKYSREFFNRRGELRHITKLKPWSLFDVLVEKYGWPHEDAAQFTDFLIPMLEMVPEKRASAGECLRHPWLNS

[7] = molecular target: T4, Dual specificity mitogen-activated protein kinase kinase 6 (Homo sapiens) (UniProt P52564); assay: Selectivity interaction (Kinase panel (Z-LYTE Assay)) EUB0001632a MAP2K6; settings: at 10 µM
T4 sequence (whole entry): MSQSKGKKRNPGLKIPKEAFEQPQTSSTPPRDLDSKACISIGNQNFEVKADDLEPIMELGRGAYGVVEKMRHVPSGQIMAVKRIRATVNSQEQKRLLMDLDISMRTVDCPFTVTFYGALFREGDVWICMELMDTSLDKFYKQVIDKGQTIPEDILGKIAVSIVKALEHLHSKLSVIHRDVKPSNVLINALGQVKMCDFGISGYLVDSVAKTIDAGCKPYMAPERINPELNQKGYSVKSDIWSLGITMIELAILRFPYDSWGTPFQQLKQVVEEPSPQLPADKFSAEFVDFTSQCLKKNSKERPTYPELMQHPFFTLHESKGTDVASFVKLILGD

O=C(NOC[C@H](O)CO)c1ccc(F)c(F)c1Nc1ccc(I)cc1F
% of control [1]: 51%
% of control [2]: 70%

COCC(=O)NC/C=C/c1ccc2ncnc(Nc3ccc(Oc4ccc(C)nc4)c(C)c3)c2c1 [CP-724714]
% of control [3]: 83%

CCC(=O)N1CCN(c2ccc(-n3c(=O)ccc4cnc5ccc(-c6cnc7ccccc7c6)cc5c43)cc2C(F)(F)F)CC1
% of control [4]: 99%

N#Cc1cccc(-c2c[nH]c3ncnc(N4CCOCC4)c23)c1
% of control [5]: 36%

Cc1ccc(-c2ccc3c(ccc4sc5c(c43)NC[C@@H](C)NC5=O)n2)cn1
% of inhibition [6]: 33%

Cn1cc(-n2cnc3c(NCc4nc5cc(Cl)c(Cl)cc5[nH]4)nc(N4CCOCC4)nc32)cn1
% of control [7]: 5.11%

Source: ChEMBL document CHEMBL5465560, “Selectivity Literature for EUbOPEN Chemogenomic Library” (2024)
